# Data: patent publication US20220031667A1, “THIAZOLIDINEDIONE ANALOGS FOR THE TREATMENT OF NAFLD AND METABOLIC DISEASES” (Cirius Therapeutics, Inc., priority 2019, published 2022)
# Entries after “also recorded” stand apart in the source; their conditions may differ.
# Columns and labels:
# [1] = preclinical toxicology, six- and twelve-month animal studies; assay type: in vivo
# [2] = system: cell functions and key regulatory proteins; experiment: impact of MSDC-0602K vs overnutrition on cell functions and key regulatory proteins (Table 1)
# [3] = system: subjects with biopsy proven NASH with fibrosis and no cirrhosis; experiment: EMMINENCE Phase 2b clinical trial, interim analysis at six months; assay type: in vivo, humans; details: for peripheral edema present at 6 months: placebo 12.50%; for percentage of patients with high baseline ALT who returned to normal range: placebo 15%; for percentage of patients with high baseline AST who returned to normal range: placebo 20%
# Description: Detailed Description: This is a randomized, double-blinded study of three doses of MSDC-0602K or placebo given orally once daily to subjects with biopsy proven NASH with fibrosis and no cirrhosis. Visits to the clinic will be at baseline, 1, 2, 3, 6, 9, and 12 months, with one 2-week follow-up visit. Safety will be assessed by monitoring of vital signs, 12 lead electrocardiogram (ECG), physical examinations, safety labs, and adverse events (AEs).
# An interim analysis of the EMMINENCE Phase 2b trial was conducted in the first 328 subjects who reached their six-month follow-up visit. […] In the two highest dose groups, at least 50% of patients with elevated baseline Alanine transaminase (ALT) or Aspartate Aminotransferase (AST) improved into the normal range at six months, as shown in Table 3.
# The subjects included in this interim analysis had significant liver disease, as established by liver biopsy, with an average NAS at baseline of 5.3. […] Overall, baseline characteristics were well-balanced across treatment groups.
# [4] = system: stellate cells in 3-dimensional bioprinted human liver organoids; experiment: 3-dimensional bioprinted human liver organoids in medium with high sugars and fatty acid, collagen staining; assay type: cell-based; details: added to the tissue medium with high concentrations of sugars and fatty acid
# [5] = system: diet-induced obese WT (fl/fl) and LS-MPC2−/− mice; experiment: single dose in diet-induced obese (60% HF diet) WT and LS-MPC2−/− mice: GTT, plasma insulin, plasma ALT, liver qPCR; assay type: in vivo; details: for glucose tolerance (GTT): vs vehicle
# Protocol: 8 week old WT and LS-MPC2−/− mice were fed a diet of 60% fat (Research Diets D12492) for 20 weeks to induce obesity and insulin resistance. Intraperitoneal glucose tolerance tests (GTT) were performed after a 4 h fast by injection of 1 g/kg D-glucose in saline i.p. to assess glucose tolerance. 3 days after the initial GTT, mice were randomized to receive a single gavage of either vehicle (1% CMC, 0.01% Tween-80) or 30 mg/kg MSDC-0602K. Plasma insulin was measured by Singulex assay and plasma ALT levels were measured by commercially-available kits (Teco Diagnostics). qPCR was performed by isolation of total RNA with RNA-Bee and reverse transcription with a high-capacity cDNA synthesis kit (Invitrogen). qPCR was performed on an Applied Biosystems real-time thermocycler.
# [6] = system: mice on high fat, high cholesterol, high sugar diet; experiment: preclinical NASH model: diet enriched in trans fat, cholesterol and fructose for 19 weeks; assay type: in vivo
# Protocol: Mice were fed a diet enriched in trans fat, cholesterol and fructose for 19 weeks to induce hepatic damage, which was assessed by histological changes in the NAS and fibrosis, measured by trichrome staining for collagen. MSDC-0602K (30 mg/kg) was given at either four weeks into the treatment or 16 weeks into the treatment as compared to the vehicle treated mice who were also on the modified diet. The results of mice who were kept on the normal diet are included for comparison. […] The signals for activation of the stellate cells and fibrosis are attenuated by treatment of the mice or isolated hepatocytes with MSDC-0602K.
# [7] = biological target: T1, MPC (mitochondrial pyruvate carrier) (Homo sapiens, UniProt O95563+Q9Y5U8); experiment: relative binding affinities with the MPC; details: FIG. 16 as printed (legend: FIG. 8); relative to rosiglitazone and pioglitazone
# T1 sequence (Q9Y5U8 1-109): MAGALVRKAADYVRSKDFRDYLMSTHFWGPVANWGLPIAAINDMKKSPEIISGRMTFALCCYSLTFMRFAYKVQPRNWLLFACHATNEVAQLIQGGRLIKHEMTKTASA
# T1 sequence (O95563 1-127): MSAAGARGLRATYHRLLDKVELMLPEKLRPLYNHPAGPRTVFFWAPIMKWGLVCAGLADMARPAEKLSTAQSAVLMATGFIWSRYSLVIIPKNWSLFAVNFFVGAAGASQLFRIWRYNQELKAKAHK
# [8] = clinical pharmacokinetics (Phase 1 cross-over trials, Phase 2a trial); details: human, in vivo; humans, oral
# [9] = system: WT mice on HTF-C diet (mouse model of NASH); experiment: NASH (HTF-C) diet plasma RNA experiments: serum miRNA sequencing; assay type: in vivo; details: HTF-C diet 4 or 16 weeks, then HTF-C diet containing 331 ppm
# Protocol: To begin evaluating the exosome cargo of MSDC-0602K-treated mice, WT mice were fed with either a low fat (LF) control diet (Research Diets D09100304) or high trans-fat, fructose, cholesterol (HTF-C) diet composed of 40% trans-fat, 20% fructose, 2% cholesterol (Research Diets D09100301).
# Total RNA was isolated from 400 μL of serum and small RNA sequencing was performed by adapter ligation, cDNA synthesis and size selection of 145-160 base pairs. Sequencing was then performed on an Illumina HiSeq3000.
# healthy volunteers = experiment: three Phase 1 clinical trials in 126 healthy volunteers, safety; assay type: in vivo, humans; details: Phase 1, healthy volunteers
# PPARγ = biological target: T2, PPARγ (Homo sapiens, UniProt P37231); experiment: relative binding affinities with PPARγ; details: FIG. 15 as printed (legend: FIG. 7)
# T2 sequence (P37231 1-505): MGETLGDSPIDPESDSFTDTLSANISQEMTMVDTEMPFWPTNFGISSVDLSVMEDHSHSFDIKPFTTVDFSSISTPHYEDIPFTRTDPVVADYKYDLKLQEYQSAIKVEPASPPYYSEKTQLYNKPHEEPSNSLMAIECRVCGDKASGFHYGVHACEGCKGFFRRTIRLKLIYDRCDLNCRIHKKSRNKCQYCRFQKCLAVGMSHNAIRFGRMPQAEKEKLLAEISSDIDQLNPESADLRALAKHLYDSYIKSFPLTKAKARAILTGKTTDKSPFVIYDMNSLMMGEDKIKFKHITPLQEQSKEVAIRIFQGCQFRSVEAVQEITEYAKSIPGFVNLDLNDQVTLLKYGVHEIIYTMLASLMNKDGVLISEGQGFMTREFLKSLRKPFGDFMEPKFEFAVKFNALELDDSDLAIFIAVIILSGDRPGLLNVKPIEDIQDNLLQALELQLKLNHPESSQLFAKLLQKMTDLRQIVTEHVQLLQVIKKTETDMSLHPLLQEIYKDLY
# [10] = exposure and bioavailability of MSDC-0602, its metabolite and the potassium salt; assay type: in vivo; details: parent plus metabolite exposure
structure (smiles),measurement,setting,value
COc1cccc(C(=O)COc2ccc(CC3SC(=O)NC3=O)cc2)c1 (centres unmarked) [MSDC-0602K],safety findings in toxicological profile,[1]; doses up to seven-fold the currently used clinical dose equivalents,"free acid, have been characterized and no significant safety findings"
same,safety and tolerability,[1]; six- and twelve-month preclinical animal studies,"0602K, MSDC-0602K was found to be safe and well-tolerated."
same,Fatty acid oxidation (burning fat),[2],Increased
same,HIF1α (transcription factor responding to oxygen),[2],Decreased
same,Inflammation (ballooning due to injury),[2],Decreased
same,Insulin sensitivity (cellular response to insulin),[2],Increased
same,"PPARγ, PPARα (transcription factors regulating fat metabolism and inflammation)",[2],Increased
same,SREBP (transcription factor regulating fat synthesis),[2],Decreased
same,de novo lipid synthesis (making new fat),[2],Decreased
same,mTORC1 (important nutrient sensor),[2],Decreased
same,peripheral edema present at 6 months,"[3]; 62.5 mg (n = 81), baseline 13.60%",7.80%
same,percentage of patients with high baseline ALT who returned to normal range,"[3]; 62.5 mg, six months",29%
same,percentage of patients with high baseline AST who returned to normal range,"[3]; 62.5 mg, six months",36%
same,peripheral edema present at 6 months,"[3]; 125 mg (n = 84), baseline 13.10%",13.50%
same,placebo-corrected reduction in ALT at six months,"[3]; 125 mg once daily, p<0.001",14.3 U/L
same,placebo-corrected reduction in AST at six months,"[3]; 125 mg once daily, p=0.012",7.9 U/L
same,percentage of patients with high baseline ALT who returned to normal range,"[3]; 125 mg, six months",60%
same,percentage of patients with high baseline AST who returned to normal range,"[3]; 125 mg, six months",50%
same,peripheral edema present at 6 months,"[3]; 250 mg (n = 85), baseline 9.40%",11.10%
same,placebo-corrected reduction in AST at six months,"[3]; 250 mg once daily, not significant",4.0 U/L
same,placebo-corrected reduction in ALT at six months,"[3]; 250 mg once daily, p=0.004",10.6 U/L
same,percentage of patients with high baseline ALT who returned to normal range,"[3]; 250 mg, six months",56%
same,percentage of patients with high baseline AST who returned to normal range,"[3]; 250 mg, six months",52%
same,HbA1c,"[3]; Type II diabetes subjects, all doses",statistically significant improvement
same,HOMA-IR and HbA1c,"[3]; all MSDC-0602K dose cohorts, six months",Statistically significant reductions
same,"fasting glucose, HbA1c, insulin levels, and HOMA-IR","[3]; all subjects, six months, 125 mg and 250 mg doses",statistically significant improvements
same,Adiponectin,"[3]; all treatment cohorts, dose dependent",increased significantly
same,"liver enzymes, including ALT and AST, at six months compared to baseline",[3]; first 328 subjects,statistically significant reductions
same,lipids,[3]; overall,neutral effect
same,treatment emergent serious adverse events,"[3]; reported in fourteen subjects, blinded across cohorts",none of which were determined by the investigator to be drug-related
same,additional biomarkers of fibrosis such as hematocrit,[3]; six months,trends for improvement
same,"bilirubin, alkaline phosphatase, and gamma GT liver enzymes",[3]; six months,Improvements
same,patients with elevated baseline ALT or AST improved into the normal range at six months,"[3]; two highest dose groups (125 mg, 250 mg)",at least 50%
same,C-Reactive Protein levels,[3]; two lowest doses,decrease
same,nutrient-induced stellate cell activation and fibrosis (staining for collagen),[4],both prevented and reversed the effects of the nutrients
same,glucose tolerance (GTT),"[5]; obese WT mice, GTT 20 h after a single gavage of 30 mg/kg, 30 mg/kg",improves glucose tolerance
same,signals for activation of the stellate cells and fibrosis,"[6]; 30 mg/kg from week 4 or week 16 of a 19 week diet, mice or isolated hepatocytes",attenuated
COc1cccc(C(=O)COc2ccc(CC3SC(=O)NC3=O)cc2)c1 (centres unmarked) [MSDC-0602],binding to the MPC,[7],"maintain, and in some cases improve, binding to the MPC"
same,half-life,[8],11 to 17 h
same,serum miRNAs altered by HTF-C diet,[9],largely corrected
same,most commonly reported adverse events,healthy volunteers,"commonly reported adverse events with MSDC-0602 were headache,; also recorded: emesis, diarrhea and abdominal bloating"
same,"deaths, serious adverse events, severe adverse events or discontinuations due to adverse events",healthy volunteers; MSDC-0602 or MSDC-0602K,No deaths
same,"safety laboratory tests, vital signs, physical examination findings or electrocardiogram abnormalities considered clinically significant",healthy volunteers; MSDC-0602 or MSDC-0602K,"events were reported. Overall, it was determined that there were no"
same,plasma ALT and liver injury gene expression in LS-MPC2−/− mice,"[5]; LS-MPC2−/− mice, acute treatment",refractory to the beneficial effects
same,plasma ALT concentrations,"[5]; WT mice, single dose (FIG. 3A)",decreased plasma ALT concentrations
same,gene expression for hepatic stellate cell activation and fibrotic scar formation,"[5]; WT mice, single dose (FIG. 3B)",decreased gene expression
same,plasma insulin values,"[5]; both WT and LS-MPC2−/− mice, single dose 30 mg/kg",decreased
same,glucose tolerance (GTT),"[5]; obese LS-MPC2−/− mice, GTT 20 h after a single dose of 30 mg/kg",no improvement in glucose tolerance
same,glucose tolerance (GTT),"[5]; obese WT mice, GTT 20 h after a single gavage of 30 mg/kg",improved glucose tolerance
same,"protection against the high fat, high cholesterol, high sugar diet representative of NASH disease",[6]; multiple animal models of NASH,has been shown to protect
COc1cccc(C(O)COc2ccc(CC3SC(=O)NC3=O)cc2)c1 (centres unmarked) [primary metabolite of MSDC-0602],binding to the MPC,[7],"maintain, and in some cases improve, binding to the MPC"
same,reduction in binding affinity for PPARγ compared to pioglitazone,PPARγ,more than fifty-fold reduction
same,share of the combined exposure,[10],more than 90%
